We go through 51 compounds from PubChem BioAssay AID1996.

In brackets after ≈: the same amount, converted by molar mass.

For the series the following is noted: buffer; pH 7.4; 200.0 µM.
In general, solubility (kinetic) refers to solubility judged after dilution from a stock solution rather than from solid. In the case of `COc1cccc(-c2cc(C(=O)NCC3CCCO3)c3cc(Br)cc(C)c3n2)c1` (stereo unspecified), the solubility (kinetic) was less than 0.5 µg/mL.
For the compound `CCOc1ccccc1NS(=O)(=O)c1csc(C(N)=O)c1`, the solubility (kinetic) was more than 49 µg/mL.
Consider `Cc1ccc(CCNC(=O)CNC(=O)c2cccs2)cc1`, for which the solubility (kinetic) turned out to be 40.3 µg/mL (≈ 133 µM).
`CN(CC(=O)NCCc1ccccc1)CC(=O)Nc1cccc(F)c1` gave a kinetic solubility of more than 51.5 µg/mL.
Compound `Cc1cc(C)c(C)c(S(=O)(=O)NC(C(=O)O)C(C)C)c1C` (stereo unspecified) displayed a kinetic solubility of more than 47 µg/mL.
For `CCOc1ccc2[nH]c3ncccc3c(=O)c2c1`, the kinetic solubility came out at 3.7 µg/mL (≈ 15.4 µM).
Next, `CC(C)CN(C(=O)C1CCC1)c1c(N)n(Cc2ccccc2)c(=O)[nH]c1=O`: 36.6 µg/mL (≈ 98.8 µM); `Cc1ccc(S(=O)(=O)N2CCCC2)s1`: 32.3 µg/mL (≈ 140 µM); `CC(=O)Nc1ccc(S(=O)(=O)NC(C)c2ccncc2)cc1` (stereo unspecified): more than 47.9 µg/mL.
For `COc1ccccc1CNC(=O)CN1C(=O)NC2(CCC(C)CC2)C1=O` (stereo unspecified), the kinetic solubility is more than 53.9 µg/mL.
For `NC(=O)C1CCN(Cc2nc(-c3cccs3)no2)CC1`, the solubility (kinetic) was more than 43.9 µg/mL.
In turn, `C=CCNC(=S)Nc1cccc(N)c1` yielded a kinetic solubility of more than 31.1 µg/mL.
`O=C(O)C1=C(C(=O)Nc2cc(C(F)(F)F)ccc2Cl)CCCC1` gave a solubility (kinetic) of 12.5 µg/mL (≈ 35.9 µM).
The compound `CN(Cc1ccccc1)C(=O)CC(=O)N(C)Cc1ccccc1` yielded a kinetic solubility of more than 46.6 µg/mL.
As for `Cc1c(C(=O)O)c(C(=O)O)c2n1CCS2`, the kinetic solubility is more than 34.1 µg/mL.
In turn, `CC1CN(S(=O)(=O)c2cccc(C(F)(F)F)c2)CC(C)O1` (stereo unspecified) returned a kinetic solubility of 43.6 µg/mL (≈ 135 µM).
For the compound `CN1CCCN(C(=O)CNC(=O)c2ccccc2F)CC1`, the kinetic solubility was more than 44 µg/mL.
Consider `O=C(O)COCc1nc2ccccc2s1`, for which the kinetic solubility is 31.7 µg/mL (≈ 142 µM).
Compound `CCOC(=O)CN1N=C(c2ccc(C)cc2)CCC1=O` displayed a solubility (kinetic) of more than 41.1 µg/mL.
As to `Cc1cc(=O)[nH]c(N2CCN(C(=O)c3ccco3)CC2)n1`, the kinetic solubility was more than 43.2 µg/mL.
Consider `FC(F)(F)c1ccc(Cl)c(-n2c(-c3ccco3)n[nH]c2=S)c1`, for which the solubility (kinetic) is more than 51.9 µg/mL.
To `Cc1ccc(S(=O)(=O)N2CCCCC2)cc1C(=O)NCc1ccccn1` belongs 52 µg/mL (≈ 139 µM); to `Cc1ccc(C(=O)Nc2ccncc2)cc1[N+](=O)[O-]`, more than 38.6 µg/mL.
With `Cc1cc(C)nc(/N=C(\N)Nc2cccc(OCc3ccccc3)c2)n1`, the kinetic solubility is more than 52.1 µg/mL.
Regarding `Cc1ccc(-c2c[n+](CC(=O)Nc3ccc(C)cc3C)c3n2CCC3)cc1.[Cl-]`, the solubility (kinetic) was more than 59.4 µg/mL.
In the case of `Cc1ccc[n+](CC(=O)Nc2ccc(C)c(C)c2)c1.[Cl-]`, the solubility (kinetic) is more than 43.6 µg/mL.
Turning to `O=C(COC(=O)C1CCCCC1)Nc1cc([N+](=O)[O-])ccc1F`, the solubility (kinetic) came to 36.4 µg/mL (≈ 112 µM).
Next, `CCOc1ccccc1N1CC(C(=O)N(CC)C2CCS(=O)(=O)C2)CC1=O` (stereo unspecified): more than 59.2 µg/mL; `CC1CCCCC1NC(=O)COC(=O)COc1ccccc1F` (stereo unspecified): 35.3 µg/mL (≈ 109 µM); `CC(C)[C@H](N[C@@H](C)c1ccccc1)c1c(O)ccc2ccccc12`: 2.2 µg/mL (≈ 6.89 µM).
The compound `Cc1ccc(C)c(C(C)NC(=S)NC2CCCCC2)c1` (stereo unspecified) gave a kinetic solubility of 10.7 µg/mL (≈ 36.8 µM).
Turning to `CC(C)Cc1ccc(C(C)C(=O)Nc2ncccn2)cc1` (stereo unspecified), the kinetic solubility was 35.9 µg/mL (≈ 127 µM).
`COc1ccc(C(C)NC(=O)CC23CC4CC(CC(C4)C2)C3)cc1` (stereo unspecified) returned a kinetic solubility of 19.7 µg/mL (≈ 60.2 µM).
In the case of `O=C(COc1ccccc1)Nc1ccccc1C(=O)NC1CC1`, the solubility (kinetic) was determined as 6.4 µg/mL (≈ 20.6 µM).
As to `Cc1ccc(C)c(NCC(=O)c2ccc(Cl)cc2)c1`, the kinetic solubility turned out to be 2.2 µg/mL (≈ 8.04 µM).
Take `CC(NC(=O)COC(=O)CCC(=O)c1ccc(Cl)cc1)c1ccccc1` (stereo unspecified): the kinetic solubility is more than 56.1 µg/mL.
On to `O=C(NCc1ccc(Cl)cc1)C1CCN(c2cnccn2)CC1`, for which the kinetic solubility is more than 49.6 µg/mL.
To `O=C(COC(=O)C1CC2C=CC1C2)Nc1ccccc1F` (stereo unspecified) belongs more than 43.4 µg/mL.
For the compound `CC(NC(=O)C(=O)NCc1cccs1)c1ccccc1` (stereo unspecified), the kinetic solubility stood at 2.5 µg/mL (≈ 8.67 µM).
To `Cc1nc(Nc2ccccc2)sc1C(=O)Nc1ccccc1` belongs 1.6 µg/mL (≈ 5.17 µM).
For the compound `Cc1ccccc1CN1CCN(CC(=O)NCc2ccccc2)CC1`, the solubility (kinetic) is more than 50.6 µg/mL.
The compound `N#Cc1ccccc1S(=O)(=O)N1CCN(C(=O)C2CC(=O)N(c3ccc4c(c3)OCCO4)C2)CC1` (stereo unspecified) showed a solubility (kinetic) of 68.6 µg/mL (≈ 138 µM).
Consider `CCOc1ncccc1C(=O)Nc1ccc2nc(C)sc2c1`, for which the solubility (kinetic) worked out at 4.2 µg/mL (≈ 13.4 µM).
In turn, `Cc1ccc(C(=O)N/C(=C/c2ccco2)C(=O)N2CCC(C)CC2)cc1` displayed a kinetic solubility of more than 52.9 µg/mL.
In the case of `O=c1[nH]cnc2c1c(-c1ccccc1)cn2-c1cccc(Cl)c1`, the kinetic solubility was 0.3 µg/mL (≈ 0.932 µM).
The compound `O=C(NCCc1ccc(F)cc1)c1ccncc1` yielded a solubility (kinetic) of more than 36.6 µg/mL.
Consider `Cc1cc(C)c2cc(C(=O)Nc3ccccc3)[nH]c2c1`, for which the kinetic solubility worked out at 1.2 µg/mL (≈ 4.54 µM).
The compound `Cc1ccccc1CN(C)C(=O)COC(=O)c1ccc2[nH]c(C)c(C)c2c1` registered a solubility (kinetic) of 2.1 µg/mL (≈ 5.76 µM).
With `CCCOc1ccc(C2=CSC3=NCCN23)cc1.Cl`, the kinetic solubility stood at 37.4 µg/mL.
As for `C=CCNC(=S)NCc1ccccc1`, the kinetic solubility was more than 30.9 µg/mL.
`COc1ccc(C(C)NC(=O)C2CCCC2)cc1OC` (stereo unspecified) registered a kinetic solubility of more than 41.6 µg/mL.
